Here are results for 1 compound from patent publication US20170224679A1, “Use of CXCR2 Antagonists For The Prevention and/or Treatment of Chemotherapy Induced Peripheral Neuropathy (CIPN)” (GlaxoSmithKline Intellectual Property Development Limited, priority 2014, published 2017).

Common to all, as to format: cell-based
In assay [1] the target is T1, CXCR2 receptor (Homo sapiens, UniProt P25025).
T1 sequence (P25025 1-360): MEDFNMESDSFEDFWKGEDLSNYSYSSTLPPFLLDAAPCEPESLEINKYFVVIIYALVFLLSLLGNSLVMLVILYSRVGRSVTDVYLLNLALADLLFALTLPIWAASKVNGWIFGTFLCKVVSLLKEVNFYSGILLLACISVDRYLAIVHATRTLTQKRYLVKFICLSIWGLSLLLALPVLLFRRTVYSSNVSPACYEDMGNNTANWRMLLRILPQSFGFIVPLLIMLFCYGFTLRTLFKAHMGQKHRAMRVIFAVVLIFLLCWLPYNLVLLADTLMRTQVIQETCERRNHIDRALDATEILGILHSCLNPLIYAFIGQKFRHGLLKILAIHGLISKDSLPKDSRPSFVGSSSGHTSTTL
As to the kind of experiment: GPCR Arrestin Assay (DiscoveRX PathHunter), CXCR2. Set-up: host or cells: PathHunter CHO cell lines. How it is done: (§1) Certain compounds of the invention were also tested by DiscoveRX Corporation (42501 Albrae Street, Fremont, Calif. 94538, United States) in their GPCR Arrestin Assay to determine their activity against a panel of receptors including CXCR2 and CXCR1. PathHunter CHO cell lines were expanded from freezer stocks according to standard procedures. Cells were seeded in a total volume of 20 μL into white walled, 384-well microplates and incubated at 37° C. for the appropriate time prior to testing. The cells were pre-incubated with antagonist followed by agonist challenge at the EC80 concentration. Intermediate dilution of sample stocks was performed to generate 5× sample in assay buffer. 5 μL of 5× sample was added to cells and incubated at 37° C. or room temperature for 30 minutes. […] Assay signal was generated through a single addition of 12.5 or 15 μL (50% v/v) of PathHunter Detection reagent cocktail, followed by one hour incubation at room temperature. Microplates were read following signal generation with a PerkinElmer Envision™ instrument for chemiluminescent signal detection. Compound activity was analyzed using CBIS data analysis suite (ChemInnovation, Calif.).

The next assay addresses T2, CXCR1 receptor (Homo sapiens, UniProt P25024).
T2 sequence (P25024 1-350): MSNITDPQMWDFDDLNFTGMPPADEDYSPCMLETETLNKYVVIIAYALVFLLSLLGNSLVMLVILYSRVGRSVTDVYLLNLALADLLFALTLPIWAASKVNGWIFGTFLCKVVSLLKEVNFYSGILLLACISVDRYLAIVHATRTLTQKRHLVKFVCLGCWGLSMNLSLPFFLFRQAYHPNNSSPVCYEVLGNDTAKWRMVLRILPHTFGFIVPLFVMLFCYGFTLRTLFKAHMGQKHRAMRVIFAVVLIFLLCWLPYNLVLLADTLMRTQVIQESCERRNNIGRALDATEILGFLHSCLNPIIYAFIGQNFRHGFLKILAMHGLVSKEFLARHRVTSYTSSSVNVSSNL
Description: GPCR Arrestin Assay (DiscoveRX PathHunter), CXCR1. Set-up: host or cells: PathHunter CHO cell lines. Conditions: PathHunter CHO cells, agonist at EC80; read-out: pIC50 against the CXCR1 receptor (converted). As to the method:
as §1

Assay [2] deals with T1, CXCR2 receptor. Description: CXCR2 Tango assay. Set-up: fused on or other part: TEV protease cleavage site and Gal4-VP16 transcription factor fused to the receptor (Invitrogen Tango construct); no part of the key. Conditions: Tango reporter gene, 80 nM hCXCL1; read-out: pIC50 against the CXCR2 receptor (converted). From the text: The assay measures ligand-induced activation of the receptor CXCR2 in a stable cell line containing the recombinant human CXCR2 linked to a TEV protease site and a Gal4-VP16 transcription factor (Invitrogen). Ligand binding to the receptor results in the recruitment of arrestin proteins (tagged with protease) to the receptor and triggers the release of a tethered transcription factor. The transcription factor enters the nucleus and activates the transcription of the reporter gene. The ability of a compound to inhibit CXCR2 activation is indirectly assessed by measuring the reporter gene activity.
A vial of cryopreserved cells was removed from liquid nitrogen and rapidly thawed in a water bath at 37° C. with gentle agitation. The cell contents were collected and resuspended in Assay Medium at a density of ˜200,000 cells/ml. All test compounds were dissolved in DMSO at a concentration of 10 mM and then were serially diluted to generate a 10-point dose response curve into 384-well assay plate (Greiner 781090) using an Echo (Labcyte) concentration-response program (50 nl/well). The cell-free, un-stimulated and positive controls were loaded with 50 nl/well pure DMSO to ensure that the DMSO concentration was constant across the plate for all assays. Using Multi-drop Combi (Thermo) with standard cassette, 50 μl of Assay Medium was added to cell-free control wells in compound-containing assay plate; 50 μl of the cell suspension without hCXCL1 (a CXCR2 ligand) was added to un-stimulated control wells (10,000 cells per well); and 50 μl of the cell suspension with 80 nM hCXCL1 was added to the rest of wells of the assay plate (10,000 cells per well). The cells were incubated overnight at 37° C./5% CO2·10 μl of 6× substrate mixture (LiveBLAzer™-FRET B/G substrate (CCF4-AM) Cat #K1096 from Invitrogen, Inc.) was added to each well using Multi-drop Combi (Thermo) with small-tube cassette and the plate was incubated at room temperature for 2 h in the dark. The plate was then read on EnVision using one excitation channel (409 nm) and two emission channels (460 nm and 530 nm).
The blue/green emission ratio (460 nm/530 nm) was calculated for each well by dividing the background-subtracted Blue emission values by the background-subtracted Green emission values. The dose response curve was based on sigmoidal dose-response model. All ratio data was normalized based upon the maximum emission ratio of positive control (hCXCL1) and minimum emission ratio of negative control (DMSO) on each plate.
In general terms: A reporter such as luciferase makes a cellular process visible.

For assay [3], the target named is T1, CXCR2 receptor. Description: Human whole blood assay version ii) (CD11b, GROα stimulated). Set-up: Assay d) measures the cellular functional activity to the native expressed human CXCR2 in whole blood; endogenous in cells; host or cells: human whole blood (neutrophils). Conditions: 33 nM GROα, neutrophil CD11b, read-out: pIC50 against the CXCR2 receptor (converted). As to the method:
Blood was withdrawn by venipuncture from consented adults and poured into a Sterilin tube containing an anti-coagulant Heparin (10 μL/mL of blood). All the test compounds were dissolved in DMSO to 4 mM and serial diluted across the plate, 1 in 3 to provide 10 point dose response curves. The compounds were then diluted 100 fold in -PBS [Phosphate buffered saline (without Calcium Chloride and Magnesium Chloride)] after which, 1 μL was dispensed in 96 U bottom Costar plates using an FX. This was done to reduce the final DMSO concentration to 0.25% and for compounds to be screened at 10 uM final assay concentration, after addition of blood.
10 μL of blood was transferred to the compound plate using a multi-channel pipette, gently tapped and incubated for 15 minutes, at 37° C. After 15 minutes, the stimulant GROα was diluted to 100 nM in 0.1% BSA (Albumin Bovine Serum)-PBS and 5 μL is dispensed across the whole plate for a final concentration of 33 nM. The plate was gently tapped and incubated further for 15 minutes at 37° C. […]
Samples were run on a Becton and Dickinson (BD)-Acurri C6 Flow Cytometer using a HyperCyt sampling apparatus (IntelliCyt) with a flow rate 2 μL/sec. CD11 b upregulation is monitored in neutrophils and identified using a combination of both side scatter and CD16 expression.

On to `CC1=CCC[C@H]1NC(=O)Nc1ccc(Cl)c(S(=O)(=O)[C@@]2(C)CCOC2)c1O` [Compound of Formula (J), 1-(4-chloro-2-hydroxy-3-(((S)-3-methyltetrahydrofuran-3-yl)sulfonyl)phenyl)-3-((R)-2-methylcyclopent-2-en-1-yl)urea], for which, on CXCR2 receptor [1] (GPCR Arrestin Assay e)), the “selectivity for CXCR2 over CXCR1” value worked out at 730 fold. Also, the IC50 was 5.01 nM on CXCR2 receptor [1] (PathHunter CHO cells, agonist at EC80, read-out: pIC50 against the CXCR2 receptor (converted)); 3980 nM on CXCR1 receptor; 1 nM at CXCR2 receptor [2]; 39.8 nM on CXCR2 receptor [3].
